Here are results for three compounds from patent publication US8207190B2, “Enantiomer of tenatoprazole and the use thereof in therapy” (Mitsubishi Tanabe Pharma Corporation, priority 2003, dated 2012).

One data set in a line: clinical. To be noted: human, plasma.
The conditions of data set [1]: versus other proton pump inhibitors such as omeprazole or lansoprazole; cited from earlier work.
Data set [2] is described as follows: solubility of (+), (−) and racemic forms of tenatoprazole in water. In kind it is physicochemical. To be noted: for solubility in water relative to the racemic form: versus racemic form.
A short description of data set [3]: chiral pharmacokinetic study, plasma analysis after chiral separation in genotyped subjects.
Description: In parallel, a chiral pharmacokinetic study was conducted to assess the preponderance of the pharmacokinetic characteristics of the (−) isomer in the pharmacokinetics of racemic tenatoprazole.
These subjects have a very weak metabolic activity concerning CYP2C19, which is responsible for the metabolism of tenatoprazole. […] These subjects are qualified as slow metabolisers.

In brackets after ≈: the same amount, converted by molar mass. Like-named read-outs stand apart in the source and are kept apart here.

For orientation: half-life means the time needed for the level to fall by half in the phase considered. A word on the solubility: it is how much of the substance goes into solution per volume. For the compound `COc1ccc2[nH]c([S+]([O-])Cc3ncc(C)c(OC)c3C)nc2n1` (racemic) [(±)racemic form, (+)-5-methoxy-2-{[(4-methoxy-3,5-dimethyl-2-pyridyl)methyl]sulfinyl}imidazo-[4,5-b]pyridine], the values for the half-life in “clinical” (20 mg) and in the data set “clinical” (80 mg) were ~7 h and ~9 h, respectively. Besides, the “plasma half-life relative to other proton pump inhibitors” value in data set [1] is listed as “about seven”. The compound further gave a solubility in data set [2] of 34.6 µg/mL (≈ 99.9 µM).

As for `COc1ccc2[nH]c([S+]([O-])Cc3ncc(C)c(OC)c3C)nc2n1` (single isomer, unassigned; (+)) [(+) form], in data set [2], the “Solubility (water)” value is 93.0 µg/mL (≈ 268 µM) and the “solubility in water relative to the racemic form” value was ~3 times. In addition, the “plasma level of the isomer compared with the other isomer” value in data set [3] (slow metabolisers, CYP2C19*2/*2 genotype, plasma after chiral separation) is “highly significant increase”.

On to `COc1ccc2[nH]c([S+]([O-])Cc3ncc(C)c(OC)c3C)nc2n1` (single isomer, unassigned; (-)) [(−) enantiomer], for which the “Solubility (water)” value in data set [2] (listed as (−) form) amounted to 74.4 µg/mL (≈ 215 µM). Moreover, the “solubility in water relative to the racemic form” value in data set [2] is given as “over 2 times”. Further, the “plasma concentration of the isomer compared with the other isomer” value in data set [3] (rapid metabolisers, CYP2C19*1/*1 genotype) was “higher concentration”.
